# Source: patent US8242160B2, “Inhibitors of ubiquitin E1” (The United States of America, as represented by the …, priority 2005, dated 2012)
# Read-outs that look alike come from different tables or passages of the source.
# Experiments:
# [1] = tested on: cyclin E; assay: Degradation of in vitro translated cyclin E in S-100 cytosolic extract; assay type: biochemical
# Description: Cytosolic extracts from cells (S-100) contain all the components for ubiquitination and proteasomal degradation. To further evaluate 4-[4-(5-nitro-furan-2-ylmethylene)-3,5-dioxo-pyrazolidin-1-yl]-benzoic acid methyl acid, we made use of in vitro translated cyclin E, which is degraded in S-100 in a time-dependent manner (FIG. 3, upper panel, lanes 1-4).
# [2] = tested on: GST-Mdm2; assay: Standard Mdm2 in vitro ubiquitination assay (E1+E2+E3), gel-based with 32P-labeled ubiquitin; assay type: biochemical
# Description: The ability of a compound to inhibit E1 activity may also be examined by determining the ability of the compound to inhibit Mdm2 autoubiquitination, which is dependent on E1, as well as E2. For in vitro assays Mdm2 can be expressed as a GST fusion. This allows for a high level of expression of protein that can be purified on glutathione Sepharose. Detection of ubiquitination of Mdm2 can be accomplished, for example, using ^32P-labeled ubiquitin, Western blotting with anti-ubiquitin, or by looking at a shift in the molecular weight of GST fusion by Western blotting with anti-GST. A variety of in vitro assays that measure levels of self-ubiquitinated Mdm2 can be employed, such as for example, immunoprecipitation of ubiquitinated Mdm2; gel assays wherein the amount of ubiquitinated Mdm2 is measured by densitometric scanning or where covalent attachment of radio-labeled or otherwise tagged ubiquitin to Mdm2 or p53 is measured; Western blot analysis, or other known techniques such as ELISA, immunoprecipitation, RIA, and the like. […]
# [3] = tested on: U2O cells; assay: Proteasome inhibitor-induced accumulation of ubiquitylated proteins; assay type: cell-based; conditions: 50 μM with ALLN 50 μM, four hours
# [4] = tested on: J588 mouse myeloma cells; assay: Killing of myeloma cells; assay type: cell-based
# Description: FIG. 6B depicts the dose-depending killing of J588 mouse myeloma cells by proteasome and E1 inhibitor by 4-[4-(5-nitro-furan-2-ylmethylene)-3,5-dioxo-pyrazolidin-1-yl]-benzoic acid methyl acid.
# (§1) While p53 induces apoptotic cell death in many tumor cells, it generally only induces growth arrest in untransformed cells. This has been the rationale for many studies targeting the p53 system.
# [5] = tested on: Nedd4; assay: In vitro autoubiquitination of HECT E3 Nedd4; assay type: biochemical
# Method: It was then evaluated whether 4-[4-(5-nitro-furan-2-ylmethylene)-3,5-dioxo-pyrazolidin-1-yl]-benzoic acid methyl acid blocks autoubiquitination of both RING finger E3s (Mdm2) and HECT E3s (Nedd4) in vitro.
# 5 pmole per experimental point of bacterially expressed GST-Mdm2 (or GST-Nedd) is coupled to glutathione Sepharose (GS) for 30 minutes at room temperature with tumbling, followed by 3× wash with 50 mM Tris pH 7.5. Following this, 20 μl of 1× buffer is added (40 μl 10× reaction buffer*, 40 μl 10× PCK**, 320 μl dH2O). The test compound in DMSO is then added to the desired concentration with an equal volume of DMSO used as a control. Samples are incubated with shaking for 1 hr at 23° C. To carry out the reaction, a pre-made cocktail of Rabbit E1 (Calbiochem #6620700)/UbCH5B/^32P Ub cocktail (1 μl/0.5 μl/1 μl) is added followed by 15 minutes shaking at 30° C. The reaction is terminated by addition of 8 μl 4× reducing SDS-PAGE loading buffer. After dissociating proteins from the beads at 100° C. for 2 minutes, samples are resolved on 6% PAGE followed by exposure of the dried gel to phosphor screen. Note: ^32P Ub is derived from GST-Ub that has been engineered to include a PKA phosphorylation site. This fusion protein is purified on glutathione Sepharose, phosphorylated, following this, the ^32P Ub ubiquitin is cleaved and purified away from the thrombin.
# [6] = tested on: TRAF6; assay: TNFα-induced TRAF6 ubiquitination, immunoprecipitation and immunoblotting; assay type: cell-based; conditions: T cell leukemia Jurkat
# Description: To determine whether 4-[4-(5-nitro-furan-2-ylmethylene)-3,5-dioxo-pyrazolidin-1-yl]-benzoic acid methyl acid blocks ubiquitination of TRAF6 in response to TNFα, TRAF6 was immunoprecipitated from the T cell leukemia Jurkat after TNFα treatment, followed by immunoblotting (FIG. 4C).
# [7] = tested on: MEFs from p53-deficient mice; assay: Killing of MEFs from p53-deficient mice; assay type: cell-based, mouse
# Description: as §1
# [8] = tested on: IκBα; assay: TNFα-induced IκBα phosphorylation in cells; assay type: cell-based; conditions: 1 minute stimulation
smiles,measurement,setting,value
"COC(=O)c1ccc(N2NC(=O)/C(=C/c3ccc([N+](=O)[O-])o3)C2=O)cc1 [E1-41, 4-[4-(5-nitro-furan-2-ylmethylene)-3,5-dioxo-pyrazolidin-1-yl]-benzoic acid methyl acid]",cyclin E degradation in S-100,[1]; no exogenous E1,block cyclin E degradation
same,cyclin E degradation in S-100 after addition of purified exogenous E1,[1]; purified exogenous E1 added to the reaction mixture,inhibition of cyclin E degradation was prevented
same,Mdm2 autoubiquitination in vitro (high molecular weight species),[2],prevent generation of high molecular weight species promoted by Mdm2 in a dose-dependent manner
same,Mdm2 autoubiquitination in vitro (high molecular weight species),[2]; listed as compound 41,inhibits autoubiquitination of Mdm2 in vitro
same,accumulation of ubiquitylated proteins in proteasome inhibitor-treated cells,[3],inhibit the accumulation of ubiquiylated proteins
same,killing of myeloma cells,[4],kills myeloma cells in a dose-dependent manner
same,autoubiquitination of Nedd4,[5],inhibits the autoubiquitination of Nedd4
same,TNFα-induced ubiquitination of TRAF6,[6],effectively inhibited
same,killing of MEFs from p53-deficient mice,[7],relatively resistant
same,IκBα phosphorylation following TNFα treatment,[8],blocks IκBα phosphorylation
